# Assay results reported in patent US8022206B2 (OSI Pharmaceuticals, LLC, priority 2008, dated 2011).
# pIC50: −log10 of the molar value.
# Experiments:
# [1] = target: RON (human) (Homo sapiens, UniProt Q04912); assay: RON (human) AlphaScreen kinase assay, Km of ATP; type: biochemical; settings: AlphaScreen, Km of ATP; read-out: RON biochemical IC50
# Procedure, shortened: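 Reaction was started with enzyme and run 30 min at RT. PT66 donor/acceptor beads in an EDTA-containing Tris pH 7.5 buffer were then added, and the signal was read after 1 h.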
# [2] = target: MET (human) (Homo sapiens, UniProt P08581); assay: MET (human) AlphaScreen kinase assay, Km of ATP; type: biochemical; settings: AlphaScreen, Km of ATP; read-out: Met biochemical IC50
# Chain of MET (human) (P08581 25-1390): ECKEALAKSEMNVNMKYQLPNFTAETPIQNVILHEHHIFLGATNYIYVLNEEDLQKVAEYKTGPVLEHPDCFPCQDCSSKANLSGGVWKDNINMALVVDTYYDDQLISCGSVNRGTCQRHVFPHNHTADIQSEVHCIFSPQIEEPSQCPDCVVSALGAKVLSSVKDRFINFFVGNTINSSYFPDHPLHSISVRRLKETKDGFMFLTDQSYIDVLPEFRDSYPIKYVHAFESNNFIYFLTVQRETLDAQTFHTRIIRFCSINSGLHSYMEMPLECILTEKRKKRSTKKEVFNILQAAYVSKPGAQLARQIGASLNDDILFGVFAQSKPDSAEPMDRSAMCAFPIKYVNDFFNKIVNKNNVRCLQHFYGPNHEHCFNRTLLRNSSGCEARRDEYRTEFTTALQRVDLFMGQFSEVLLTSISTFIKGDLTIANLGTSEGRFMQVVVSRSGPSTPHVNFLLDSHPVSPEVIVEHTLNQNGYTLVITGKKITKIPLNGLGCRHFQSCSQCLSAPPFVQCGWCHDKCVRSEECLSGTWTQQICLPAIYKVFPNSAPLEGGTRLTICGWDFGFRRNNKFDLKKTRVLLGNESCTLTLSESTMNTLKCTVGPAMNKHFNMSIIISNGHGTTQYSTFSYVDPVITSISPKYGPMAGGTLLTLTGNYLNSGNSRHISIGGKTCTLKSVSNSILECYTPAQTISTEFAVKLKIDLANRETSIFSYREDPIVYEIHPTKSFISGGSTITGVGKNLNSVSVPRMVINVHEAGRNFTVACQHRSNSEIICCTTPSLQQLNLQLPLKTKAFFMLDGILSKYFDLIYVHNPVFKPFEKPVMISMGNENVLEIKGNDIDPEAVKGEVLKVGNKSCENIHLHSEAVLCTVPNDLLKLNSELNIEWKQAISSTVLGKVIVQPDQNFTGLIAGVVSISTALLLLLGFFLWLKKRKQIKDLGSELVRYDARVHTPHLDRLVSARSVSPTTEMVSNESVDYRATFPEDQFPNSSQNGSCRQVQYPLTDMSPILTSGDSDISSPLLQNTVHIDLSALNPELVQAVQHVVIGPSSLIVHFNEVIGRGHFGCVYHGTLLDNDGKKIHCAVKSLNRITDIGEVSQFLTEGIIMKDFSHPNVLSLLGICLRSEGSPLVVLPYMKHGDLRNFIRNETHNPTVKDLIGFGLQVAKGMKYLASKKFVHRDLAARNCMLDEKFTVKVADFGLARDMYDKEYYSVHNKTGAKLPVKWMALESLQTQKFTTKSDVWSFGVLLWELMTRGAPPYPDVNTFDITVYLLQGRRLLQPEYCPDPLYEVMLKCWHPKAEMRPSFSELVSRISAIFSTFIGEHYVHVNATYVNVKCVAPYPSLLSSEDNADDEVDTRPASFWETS
# Procedure, shortened: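 Human MET at lot-optimised concentration in 50 mM Tris pH 7.4 buffer with 1 mM DTT, compound at 1% DMSO final; enzyme starts the reaction, 60 min at RT.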
# Chain of RON (human) (Q04912 25-1400): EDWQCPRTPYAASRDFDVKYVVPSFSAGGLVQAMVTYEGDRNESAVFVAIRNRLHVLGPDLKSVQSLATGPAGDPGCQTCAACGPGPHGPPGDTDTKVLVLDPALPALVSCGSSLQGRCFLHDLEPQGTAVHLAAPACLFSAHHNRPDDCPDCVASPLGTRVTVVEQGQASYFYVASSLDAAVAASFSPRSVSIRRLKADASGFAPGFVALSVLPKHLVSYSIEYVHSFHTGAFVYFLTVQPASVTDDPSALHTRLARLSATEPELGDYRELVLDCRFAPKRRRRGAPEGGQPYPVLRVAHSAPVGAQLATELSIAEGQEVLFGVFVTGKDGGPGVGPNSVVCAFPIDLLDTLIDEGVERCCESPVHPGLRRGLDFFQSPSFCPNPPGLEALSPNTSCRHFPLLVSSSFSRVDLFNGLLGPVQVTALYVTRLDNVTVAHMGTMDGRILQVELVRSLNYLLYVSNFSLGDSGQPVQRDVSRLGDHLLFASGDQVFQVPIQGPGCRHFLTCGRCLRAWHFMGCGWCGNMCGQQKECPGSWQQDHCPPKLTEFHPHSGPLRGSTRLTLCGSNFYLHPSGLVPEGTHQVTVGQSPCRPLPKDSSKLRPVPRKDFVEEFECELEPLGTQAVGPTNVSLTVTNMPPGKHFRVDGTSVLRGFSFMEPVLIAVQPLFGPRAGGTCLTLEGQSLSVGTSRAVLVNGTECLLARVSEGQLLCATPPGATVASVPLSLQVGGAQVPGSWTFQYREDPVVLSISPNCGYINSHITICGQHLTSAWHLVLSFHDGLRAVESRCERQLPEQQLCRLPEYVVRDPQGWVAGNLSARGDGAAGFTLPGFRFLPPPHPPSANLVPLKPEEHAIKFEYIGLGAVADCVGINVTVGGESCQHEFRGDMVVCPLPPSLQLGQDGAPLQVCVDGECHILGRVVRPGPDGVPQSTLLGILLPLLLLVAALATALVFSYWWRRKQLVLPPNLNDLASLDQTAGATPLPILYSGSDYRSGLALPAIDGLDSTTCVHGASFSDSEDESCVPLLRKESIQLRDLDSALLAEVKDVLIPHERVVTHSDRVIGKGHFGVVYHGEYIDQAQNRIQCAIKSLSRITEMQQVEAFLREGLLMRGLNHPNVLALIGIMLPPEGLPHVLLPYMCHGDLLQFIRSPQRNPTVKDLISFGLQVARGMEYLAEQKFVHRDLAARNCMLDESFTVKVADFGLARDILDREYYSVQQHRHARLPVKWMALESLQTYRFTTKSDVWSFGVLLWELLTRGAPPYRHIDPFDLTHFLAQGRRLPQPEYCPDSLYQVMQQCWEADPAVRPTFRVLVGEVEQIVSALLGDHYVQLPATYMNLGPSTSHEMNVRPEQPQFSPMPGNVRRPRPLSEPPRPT
pIC50 [1],pIC50 [2],SMILES
5.30 to 6.30,> 6.30,"C[C@@H](Oc1c(N)ncc2c(-c3cccc(CN(C)C)c3)coc12)c1c(Cl)ccc(F)c1Cl [Example 96, 7-[(R)-1-(2,6-Dichloro-3-fluorophenyl)ethoxy]-3-(3-dimethyl-aminomethylphenyl)furo[3,2-c]pyridin-6-ylamine]"
5.30 to 6.30,> 6.30,"C[C@@H](Oc1c(N)ncc2c(-c3ccc(C(=O)NCCN4CCCC4)cc3)coc12)c1c(Cl)ccc(F)c1Cl [Example 101, 4-{6-Amino-7-[(R)-1-(2,6-dichloro-3-fluorophenyl)ethoxy]-furo[3,2-c]pyridin-3-yl}-N-(2-pyrrolidin-1-ylethyl)benzamide]"
5.30 to 6.30,5.30 to 6.30,"C[C@@H](Oc1c(N)ncc2c(-c3cnc(N)nc3)coc12)c1c(Cl)ccc(F)c1Cl [Example 113, 3-(2-Amino-pyrimidin-5-yl)-7-[(R)-1-(2,6-dichloro-3-fluorophenyl)ethoxy]furo[3,2-c]pyridin-6-ylamine]"
5.30 to 6.30,5.30 to 6.30,"CC(Oc1c(N)ncc2c(-c3cnn(C4CCNCC4)c3)coc12)c1ncc(C(F)(F)F)cc1Cl (stereo not drawn) [Example 413, 7-[1-(3-Chloro-5-trifluoromethylpyridin-2-yl)ethoxy]-3-(1-piperidin-4-yl-1H-pyrazol-4-yl)furo[3,2-c]pyridin-6-ylamine]"
4.70 to 5.30,5.30 to 6.30,"CCCCS(=O)(=O)Nc1cccc(-c2coc3c(O[C@H](C)c4c(Cl)ccc(F)c4Cl)c(N)ncc23)c1 [Example 246, Butane-1-sulfonic acid (3-{6-amino-7-[(R)-1-(2,6-dichloro-3-fluorophenyl)ethoxy]-furo[3,2-c]pyridin-3-yl}phenyl)amide]"

# The remaining lines, values behind:
SMILES,pIC50 [1],pIC50 [2]
"C[C@@H](Oc1c(N)ncc2c(-c3ccc(CN4CCSCC4)s3)coc12)c1c(Cl)ccc(F)c1Cl [Example 219, 7-[(R)-1-(2,6-Dichloro-3-fluorophenyl)ethoxy]-3-(5-thiomorpholin-4-ylmethylthiophen-2-yl)furo[3,2-c]pyridin-6-ylamine]",5.30 to 6.30,5.30 to 6.30
"Nc1ncc2c(-c3cnn(C4CCNCC4)c3)coc2c1OCCc1ccccc1 [Example 416, 7-Phenethyloxy-3-(1-piperidin-4-yl-1H-pyrazol-4-yl)furo[3,2-c]pyridin-6-ylamine]",5.30 to 6.30,5.30 to 6.30
"CNCC(=O)N1CC=C(c2coc3c(O[C@H](C)c4c(Cl)ccc(F)c4Cl)c(N)ncc23)CC1 [Example 250, 1-[4-{6-Amino-7-[(1R)-1-(2,6-dichloro-3-fluorophenyl)ethoxy]furo[3,2-c]pyridin-3-yl}-3,6-dihydropyridin-1(2H)-yl]-2-(methylamino)ethanone]",> 6.30,> 6.30
"CC(Cc1c(Cl)cccc1C(F)(F)F)Oc1c(N)ncc2c(-c3cnn(C4CCNCC4)c3)coc12 (stereo not drawn) [Example 440, 7-[2-(2-Chloro-6-trifluoromethylphenyl)-1-methylethoxy]-3-(1-piperidin-4-yl-1H-pyrazol-4-yl)furo[3,2-c]pyridin-6-ylamine]",5.30 to 6.30,> 6.30
"C[C@@H](Oc1c(N)ncc2c(-c3ccc(NC(N)=O)cc3)coc12)c1c(Cl)ccc(F)c1Cl [Example 108, (4-{6-Amino-7-[(R)-1-(2,6-dichloro-3-fluorophenyl)ethoxy]furo[3,2-c]pyridin-3-yl}phenyl)urea]",5.30 to 6.30,5.30 to 6.30
"C[C@@H](Oc1c(N)ncc2c(C3=CCN(C(=O)C4(O)CC4)CC3)coc12)c1c(Cl)ccc(F)c1Cl [Example 19, (4-{6-Amino-7-[(R)-1-(2,6-dichloro-3-fluorophenyl)-ethoxy]-furo[3,2-c]pyridin-3-yl}-3,6-dihydro-2H-pyridin-1-yl)-(1-hydroxycyclopropyl)-methanone]",5.30 to 6.30,5.30 to 6.30
"Cn1c(Cc2ccccc2)ncc(-c2ccc(COc3c(N)ncc4c(-c5cnn(C6CCNCC6)c5)coc34)c(F)c2)c1=O [Example 463, 5-{4-[6-Amino-3-(1-piperidin-4-yl-1H-pyrazol-4-yl)-furo[3,2-c]pyridin-7-yloxymethyl]-3-fluorophenyl}-2-benzyl-3-methyl-3H-pyrimidin-4-one]",> 6.30,> 6.30
